“And” between values parts separate entries of the source, which are not always exact repeats. Equal entries are not always repeated. Inconclusive results and toxic doses are left out.

The experiment concerns P388 leukemia ip, CD2F1 mice, survival T/C. In words: NCI In Vivo Anticancer Drug Screen. Data for tumor model P388 Leukemia (intraperitoneal) in CD2F1 (CDF1) mice. Particulars: endpoint: median survival time, higher = longer survival. The method, boiled down: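 Mice carrying the transplanted tumor received test compound or vehicle. Survival was recorded in each group, and the value is the treated-group measurement divided by that of the vehicle-treated control group.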

The mark [1] stands for this setting: dose: 60.0 mg/kg/injection, schedule: Q01DX005 (ip), vehicle: saline.
Where [2] appears, read: dose: 120.0 mg/kg/injection, schedule: Q01DX005 (ip), vehicle: saline.
Where [3] appears, read: dose: 240.0 mg/kg/injection, schedule: Q01DX005 (ip), vehicle: saline.
The mark [4] stands for this setting: dose: 60.0 mg/kg/injection, schedule: Q01DX005 (ip), vehicle: saline with Tween-80.
Where [5] appears, read: dose: 120.0 mg/kg/injection, schedule: Q01DX005 (ip), vehicle: saline with Tween-80.
Setting [6] is: dose: 240.0 mg/kg/injection, schedule: Q01DX005 (ip), vehicle: saline with Tween-80.
Setting [7] is: dose: 100.0 mg/kg/injection, schedule: Q04DX003 (ip), vehicle: saline.
[8] abbreviates: dose: 200.0 mg/kg/injection, schedule: Q04DX003 (ip), vehicle: saline.
Where [9] appears, read: dose: 30.0 mg/kg/injection, schedule: Q01DX005 (ip), vehicle: saline with Tween-80.
Setting [10] is: dose: 12.5 mg/kg/injection, schedule: Q01DX009 (ip), vehicle: saline with Tween-80.
Where [11] appears, read: dose: 25.0 mg/kg/injection, schedule: Q01DX009 (ip), vehicle: saline with Tween-80.
Setting [12] is: dose: 50.0 mg/kg/injection, schedule: Q01DX009 (ip), vehicle: Klucel (hydroxypropylcellulose) (HPC).
The mark [13] stands for this setting: dose: 100.0 mg/kg/injection, schedule: Q01DX009 (ip), vehicle: Klucel (hydroxypropylcellulose) (HPC).

On to `COC(=O)C12OCC34C(OC(=O)C(OC(=O)C=C(C)C)C13)C(OC(C)=O)C1C(C)=CC(=O)CC1(C)C4C(O)C2O` (stereo not drawn) (tested in a mixture with another compound), for which the T/C (dose: 13.0 micrograms/kg/injection, schedule: Q01DX009 (ip), vehicle: saline + alcohol) is 96 % of control; the T/C (dose: 25.0 micrograms/kg/injection, schedule: Q01DX009 (ip), vehicle: saline + alcohol) was 97 % of control; the T/C (dose: 50.0 micrograms/kg/injection, schedule: Q01DX009 (ip), vehicle: saline + alcohol) is 100 % of control; the T/C (dose: 100.0 micrograms/kg/injection, schedule: Q01DX009 (ip), vehicle: saline + alcohol) was 101 % of control; the T/C (dose: 190.0 micrograms/kg/injection, schedule: Q01DX009 (ip), vehicle: saline + alcohol) is 102 % of control; the T/C (dose: 380.0 micrograms/kg/injection, schedule: Q01DX009 (ip), vehicle: saline + alcohol) was 102 % of control. The T/C (dose: 750.0 micrograms/kg/injection, schedule: Q01DX009 (ip), vehicle: saline + alcohol) was 106 % of control.

Turning to `Cc1ccc2c(C(=O)O)cccc2n1`, the T/C reads like this: (dose: 100.0 mg/kg/injection, schedule: Q04DX002 (ip), vehicle: saline with Tween-80) 97 % of control; (dose: 200.0 mg/kg/injection, schedule: Q04DX002 (ip), vehicle: saline with Tween-80) 98 % of control; (dose: 400.0 mg/kg/injection, schedule: Q04DX002 (ip), vehicle: saline with Tween-80) 95 % of control.

As for `C=C(C)C(=NC(C)(C)C)N1CCCCC1`, the T/C runs as follows: (dose: 50.0 mg/kg/injection, schedule: Q01DX005 (ip), vehicle: Klucel (hydroxypropylcellulose) (HPC)) 100 % of control; (dose: 100.0 mg/kg/injection, schedule: Q01DX005 (ip), vehicle: Klucel (hydroxypropylcellulose) (HPC)) 102 % of control.

Regarding `COC(=O)C1(CC(=O)C(C)(C)C)NC(=S)NC(=O)C1C#N` (stereo not drawn), the T/C is, setting by setting: under setting [1], 107 % of control; under setting [2], 101 % of control; under setting [3], 97 % of control.

In the case of `CC1SC(N)=NN=C1c1c(O)c2ccccc2oc1=O` (stereo not drawn), the T/C is 103 % of control (dose: 100.0 mg/kg/injection, schedule: Q04DX002 (ip), vehicle: Klucel (hydroxypropylcellulose) (HPC)); 98 % of control (dose: 200.0 mg/kg/injection, schedule: Q04DX002 (ip), vehicle: Klucel (hydroxypropylcellulose) (HPC)); 97 % of control (dose: 400.0 mg/kg/injection, schedule: Q04DX002 (ip), vehicle: Klucel (hydroxypropylcellulose) (HPC)).

With `C=C1CC(O)C2C(C[Se]c3ccccc3)C(=O)O[C@@H]2C2C(=C)[C@@H](O)CC12` (stereo partly drawn), the T/C is, setting by setting: under setting [4], 96 % of control; under setting [5], 100 % of control; under setting [6], 99 % of control.

With `NC(CCC(=O)OCc1ccccc1)C(=O)OCc1ccccc1` (stereo not drawn), the T/C (dose: 50.0 mg/kg/injection, schedule: Q04DX003 (ip), vehicle: saline) was 100 % of control; the T/C under setting [7] was 104 % of control; the T/C under setting [8] was 100 % of control.

`COC(=O)c1cc(-c2ccc3ccccc3c2)[nH]c(=O)c1C#N`: the T/C under setting [9] was 100 % of control; the T/C under setting [4] was 91 % of control and 92 % of control; the T/C under setting [5] was 96 % of control.

As to `CCCN(CCC)c1cc(=O)nc2ccccn12`, the T/C runs as follows: under setting [1], 100 % of control; under setting [2], 106 % of control; under setting [3], 106 % of control.

On to `O=C(CCl)N1CCN(C(c2ccccc2)c2ccccc2)CC1`, for which the T/C is, setting by setting: under setting [4], 99 % of control; under setting [5], 100 % of control; under setting [6], 99 % of control.

With `CC1=C(O)c2ccccc2C(=O)C1=O`, the T/C was 101 % of control under setting [10]; 113 % of control and 90 % of control under setting [11]; 105 % of control and 116 % of control (dose: 50.0 mg/kg/injection, schedule: Q01DX009 (ip), vehicle: saline with Tween-80); 92 % of control (dose: 100.0 mg/kg/injection, schedule: Q01DX009 (ip), vehicle: saline with Tween-80); 90 % of control (dose: 200.0 mg/kg/injection, schedule: Q01DX009 (ip), vehicle: saline with Tween-80).

`O=c1oc2cc(Cl)cnc2n1-c1ccccc1`: the T/C is 96 % of control (dose: 100.0 mg/kg/injection, schedule: Q01DX001 (ip), vehicle: Klucel (hydroxypropylcellulose) (HPC)); 98 % of control (dose: 200.0 mg/kg/injection, schedule: Q01DX001 (ip), vehicle: Klucel (hydroxypropylcellulose) (HPC)); 90 % of control (dose: 400.0 mg/kg/injection, schedule: Q01DX001 (ip), vehicle: Klucel (hydroxypropylcellulose) (HPC)).

On to `O=c1[nH]cc(Cn2cccc3c(=O)ncnc2-3)c(=O)[nH]1`, for which the T/C runs as follows: (dose: 100.0 mg/kg/injection, schedule: Q01DX001 (ip), vehicle: suspension in saline) 93 % of control; (dose: 200.0 mg/kg/injection, schedule: Q01DX001 (ip), vehicle: suspension in saline) 102 % of control.

As to `CN1CC[CH2][Sn]([Cl])([Cl])[CH2]CC1`, the T/C runs as follows: (dose: 3.75 mg/kg/injection, schedule: Q01DX005 (ip), vehicle: saline with Tween-80) 114 % of control; (dose: 7.5 mg/kg/injection, schedule: Q01DX005 (ip), vehicle: saline with Tween-80) 105 % of control.

As for `CCCCCCCCCOCC(COP(=O)([O-])OCC[N+](C)(C)C)OC` (stereo not drawn), the T/C (dose: 50.0 mg/kg/injection, schedule: Q01DX005 (ip), vehicle: saline) is 99 % of control and the T/C (dose: 100.0 mg/kg/injection, schedule: Q01DX005 (ip), vehicle: saline) is 103 % of control.

Turning to `CCCCCCCCCCCCNCC(=O)O`, the T/C was 109 % of control (dose: 25.0 mg/kg/injection, schedule: Q01DX009 (ip), vehicle: saline) and 113 % of control (dose: 50.0 mg/kg/injection, schedule: Q01DX009 (ip), vehicle: saline).

`CCOC(=O)c1cc(=O)[nH]c2cc(N)ccc12`: the T/C was 97 % of control (dose: 60.0 mg/kg/injection, schedule: Q01DX005 (ip), vehicle: Klucel (hydroxypropylcellulose) (HPC)); 93 % of control (dose: 120.0 mg/kg/injection, schedule: Q01DX005 (ip), vehicle: Klucel (hydroxypropylcellulose) (HPC)); 91 % of control (dose: 240.0 mg/kg/injection, schedule: Q01DX005 (ip), vehicle: Klucel (hydroxypropylcellulose) (HPC)).

In the case of `CC(/C=C/c1ccccc1)=N\Nc1ccc(Cl)c(Cl)c1`, the T/C is 102 % of control under setting [12]; 102 % of control under setting [13]; 100 % of control (dose: 200.0 mg/kg/injection, schedule: Q01DX009 (ip), vehicle: Klucel (hydroxypropylcellulose) (HPC)).

Regarding `Cc1ccccc1N1C(=O)[N+](C)(C)N=C1[O-]`, the T/C is 109 % of control and 113 % of control under setting [7]; 99 % of control and 113 % of control under setting [8]; 91 % of control (dose: 400.0 mg/kg/injection, schedule: Q04DX003 (ip), vehicle: saline).

As to `CC(C)c1ccc2nc3ccc(C(=O)NCCN4CCN(c5ccccc5)CC4)cn3c(=O)c2c1`, the T/C by setting is: under setting [4], 97 % of control; under setting [5], 89 % of control; under setting [6], 92 % of control.

On to `c1ccc2c(CCN3CCCCC3)c[nH]c2c1`, for which the T/C reads like this: (dose: 15.0 mg/kg/injection, schedule: Q01DX005 (ip), vehicle: saline with Tween-80) 92 % of control; under setting [9], 88 % of control; under setting [4], 101 % of control and 87 % of control.

Take `COC(=O)Nc1nc2ccc(CCC(=O)c3c(C)oc(C)c3-c3ccc(NC(C)=O)cc3)cc2[nH]1`: the T/C was 99 % of control under setting [4] and 99 % of control under setting [5].

For `O=C(O)CCCCCCCCCCNC(=O)CCl`, the T/C was 88 % of control under setting [12] and 91 % of control under setting [13].

Consider `CCOC(=O)C1=C(C(=O)c2ccccc2)C(c2ccc(Cl)cc2Cl)C(C(=O)c2ccccc2)=C(C(=O)OCC)N1`, for which the T/C by setting is: under setting [4], 93 % of control; under setting [5], 90 % of control.

In the case of `O=C1NNCc2c1oc1ccccc21`, the T/C was 95 % of control (dose: 6.25 mg/kg/injection, schedule: Q01DX009 (ip), vehicle: saline with Tween-80); 92 % of control under setting [10]; 99 % of control under setting [11].

Turning to `COC(=O)c1ccc(-c2cc(Cl)c3cc(S(=O)(=O)F)ccc3n2)cc1`, the T/C by setting is: (dose: 100.0 mg/kg/injection, schedule: Q04DX003 (ip), vehicle: saline with Tween-80) 95 % of control; (dose: 200.0 mg/kg/injection, schedule: Q04DX003 (ip), vehicle: saline with Tween-80) 90 % of control; (dose: 400.0 mg/kg/injection, schedule: Q04DX003 (ip), vehicle: saline with Tween-80) 90 % of control.

Take `CCOC(=O)C1=C(NC23CC4CC(CC(C4)C2)C3)OCC1=O`: the T/C under setting [4] is 107 % of control and the T/C under setting [5] is 110 % of control.
